# Laboratory results taken from US20020086865A1, “Use of growth hormone secretagogues for stimulating or increasing appetite” (priority 2000, published 2002).
# Square brackets hold non-standard residues; d marks the D form. Peptide text beside a SMILES is read from it. dTrp(2-Me) = Cc1[nH]c2ccccc2c1C[C@@H](N)C(=O)O; d2Nal = N[C@H](Cc1ccc2ccccc2c1)C(=O)O
# Columns and labels:
# free-feeding rats = settings: intracerebroventricular administration; cited from earlier work
# satiated rats = settings: s.c.; cited from earlier work
# [1] = tested on: young women with anorexia nervosa; settings: cited from earlier work
# [2] = tested on: healthy, young male subjects; settings: 100 mg single oral dose in a solution of water, fasted state; four subjects on active
# Description: The test compound or placebo was administered orally in a solution of water to the subjects in a fasted state. The doses evaluated were 0.3, 1, 3, 10, 30 and 100 mg of the test compound or placebo. Each participant was studied at only one dose level.
# rats = settings: intracerebroventricular; cited from earlier work
# [3] = orally active; cited from earlier work
compound,measurement,setting,value
C[C@H](NC(=O)[C@@H](Cc1ccc2ccccc2c1)NC(=O)[C@@H](C)N)C(=O)N[C@@H](Cc1c[nH]c2ccccc12)C(=O)N[C@H](Cc1ccccc1)C(=O)N[C@@H](CCCCN)C(N)=O [KP-102] (H-[dA][d2Nal]AW[dF]K-NH2),food intake,free-feeding rats,increased food intake
Cc1[nH]c2ccccc2c1C[C@@H](NC(=O)[C@@H](N)Cc1cnc[nH]1)C(=O)N[C@@H](C)C(=O)N[C@@H](Cc1c[nH]c2ccccc12)C(=O)N[C@H](Cc1ccccc1)C(=O)N[C@@H](CCCCN)C(N)=O [hexarelin] (H-H[dTrp(2-Me)]AW[dF]K-NH2),GH release,satiated rats,dose dependently stimulated
same,feeding behavior,satiated rats,dose dependently stimulated
recombinant growth hormone: recombinant growth hormone,IGF-1 levels,[1],normalizes IGF-1 levels
same,body weight,[1],increases body weight
same,eating behavior,[1],improves eating behavior
"CC(C)(N)C(=O)N[C@H](COCc1ccc(F)cc1F)C(=O)N1CCC2=NN(CC(F)(F)F)C(=O)[C@]2(Cc2ccccn2)C1.O=C(O)C(O)C(O)C(=O)O [test compound, (L)-(+)-tartaric acid salt of 2-amino-N-(1-(R)-(2,4-difluoro-benzyloxymethyl)-2-oxo-2-(3-oxo-3a-(R)-pyridin-2-ylmethyl-2-(2,2,2-trifluoro-ethyl)-2,3,3a,4,6,7-hexahydro-pyrazolo-[4,3-c]pyridin-5-yl)-ethyl)-2-methyl-propionamide]",subjects who self-reported feeling hungry (case report forms),[2],two of the four subjects
GHRP-6,eating,rats,stimulated eating
same,plasma growth hormone responses,rats,without affecting plasma growth hormone responses
same,GH release,satiated rats,dose dependently stimulated
same,feeding behavior,satiated rats,dose dependently stimulated
CC(C)(N)C(=O)N[C@H](COCc1ccccc1)C(=O)N1CCC2(CC1)CN(S(C)(=O)=O)c1ccccc12 [MK-677],diet-induced catabolism,[3],reverses diet-induced catabolism
